From patent US8962615B2, “Cell migration modulating compounds” (University of Dundee, priority 2005, dated 2015)

Tested on: human skin fibroblasts
Assay: migration of human skin fibroblasts in the 3D collagen gel assay
Assay type: cell-based
Conditions: relative to control fibroblasts in the absence of test compound, FIG. 3
Source text: The results were plotted and are shown on the graph depicted in FIG. 3 in which compound (IV) is referred to as BDP 1. The data are expressed as fold-stimulation of migration relative to control fibroblasts in the absence of test compound. The range of base-line (control) migration is indicated by the horizontal dotted lines.

Question: With `COC(=O)CC1Nc2c(cccc2OCCC(C)C)CN(C)C1=O` (stereo not shown) [Compound (IV)] as the molecule, how does the “fold-stimulation of migration relative to control fibroblasts” value read?
Answer: stimulated target cell migration with a bell-shaped dose-response similar in potency and profile to that of IGDS
